Source: paper PMC10096180, “Half-Sandwich Type Platinum-Group Metal Complexes of C-Glucosaminyl Azines: Synthesis and Antineoplastic and Antimicrobial Activities” (Molecules, 2023)
Read-outs that look alike come from different tables or passages of the source. Blank lines part the entries; values can stand above or below the molecule they belong to.

Tests used:
[1] = test system: A2780 cells; assay: SRB binding assay, cytostasis, 48 h treatment; format: cell-based; conditions: for A2780 SRB Max Inhibition: up to 100 μM, ND = not detectable
Method in brief: (§1)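 Ovarian cancer A2780 cells and primary human dermal fibroblasts treated 48 h, TCA-fixed, SRB-stained, absorbance at 540 nm relative to vehicle. IC50 from four-parameter fit when a plateau was reached or inhibition exceeded 90%; otherwise percent inhibition at 100 μM.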

[2] = test system: primary human dermal fibroblasts; assay: SRB binding assay, cytostasis, 48 h treatment; format: cell-based; conditions: up to 100 μM, ND = not detectable
Method in brief: as §1

[3] = Distribution coefficient (logD), n-octanol-PBS; format: physicochemical; conditions: n-octanol-PBS (pH = 7.4) system
Description: The logD values of the newly synthesized complexes were determined according to a procedure described in our previous publications. page 64: Ir-7b +1.17 Rh-7b +1.41 Ru-7c +1.31 Os-7c +1.59 Ir-7c +1.40 Rh-7c +1.13 Ru-7d +1.26 Os-7d +1.42 Ir-7d +1.30 Rh-7d +1.04 Ru-7e +2.22 Os-7e +2.21 Ir-7e +1.39 Rh-7e +1.66 *logD was determined in an n-octanol-PBS (pH = 7.4) system 64 (14 pictures or pasted objects on this page, not shown here)

[4] = test system: vancomycin-resistant Enterococcus (VRE) clinical isolates; assay: Broth microdilution MIC, clinical VRE isolates; format: cell-based, E. faecium; conditions: 24 h, 0.08–40 μM
Method in brief: (§2)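 S. aureus and E. faecium clinical isolates (Debrecen, 2018–2020; MALDI-TOF-identified) tested by EUCAST broth microdilution in Mueller–Hinton broth at 5.0 × 10^5 CFU/mL across 0.08–40 μM (twofold). After 24 h at 37 °C, visually read; MIC is the lowest concentration giving ≥50% inhibition versus growth control. At least two runs in duplicate.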

[5] = test system: A2780 cells; assay: MTT reduction assay, early toxicity, 4 h treatment; format: cell-based
Method in brief: (§3)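 Cells plated the day before, exposed to compounds for 4 h, then MTT 0.5 mg/mL for 40–60 min at 37 °C; reduced dye dissolved in DMSO, read at 540 nm relative to vehicle wells. IC50 by four-parameter fit; otherwise % inhibition at 100 μM.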

[6] = test system: primary human dermal fibroblasts; assay: MTT reduction assay, early toxicity, 4 h treatment; format: cell-based; conditions: up to 100 μM
Method in brief: as §3

[7] = test system: Staphylococcus aureus (ATCC29213); assay: Broth microdilution MIC, reference strain; format: cell-based; conditions: 0.08–40 μM, read-out: MIC S. aureus ATCC 29213
Method in brief: (§4)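 EUCAST broth microdilution in Mueller–Hinton broth, inoculum 5.0 × 10^5 CFU/mL, compounds at 0.08–40 μM (twofold dilutions), 24 h at 37 °C. Plates read visually; MIC taken as lowest concentration giving ≥50% inhibition versus drug-free growth control.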

[8] = test system: Enterococcus faecalis (ATCC29212); assay: Broth microdilution MIC, reference strain; format: cell-based; conditions: 24 h, tested range 0.08–40 μM, read-out: MIC E. faecalis ATCC 29,212
Method in brief: as §4

[9] = test system: methicillin-resistant Staphylococcus aureus (MRSA) clinical isolates; assay: Broth microdilution MIC, clinical MRSA isolates; format: cell-based; conditions: 24 h, 0.08–40 μM
Method in brief: as §2

[10] = test system: ID8 cells; assay: SRB assay, 48 h; format: cell-based
Description: (§5) Figure 8 Assessment of free ligand 3a and complex Ru-3a for cytostatic activity in multiple carcinomas. […] Cells were treated with the compounds in the concentrations indicated for 48 h; then, an SRB assay was performed. Data are represented as average ± SD from three biological replicates; individual assays were performed in duplicates. Values were normalized for vehicle-treated cells; absorbance for vehicle-treated cells equals 1. Statistical significance was assessed using a one-way ANOVA test comparing all values to the lowest concentration of a compound. Before the test, normality was assessed using the Shapiro–Wilk test, and the post hoc test was chosen accordingly. […] An SRB assay measures protein content of cells in correlation with the cell number in an assay well and can therefore be used to assess cell proliferation or long-term cytostasis. Cells were seeded in 96-well plates the day before the assay. Cells were treated with the compounds for 48 h. Then medium was removed, and cells were fixed with 10% trichloroacetic acid. […] Stained cells were washed in 1% acetic acid 5 times; acetic acid was removed, and cells were left to dry. Protein-bound SRB was released by adding 100 μL 10 mM Tris base. Plates were measured in a plate photometer (Thermo Scientific Multiscan GO spectrophotometer, Waltham, MA, USA) at 540 nm. On each plate, wells were designed to contain vehicle-treated cells. […] Statistical analysis was performed using version 8.0.1 of GraphPad Prism. Values were tested for normal distribution using the Shapiro–Wilk normality test. […] In other cases, the percentage of inhibition was taken for the maximum concentration (100 μM).

[11] = test system: U251 cells; assay: SRB assay, 48 h; format: cell-based
Description: as §5

[12] = test system: Capan2 cells; assay: SRB assay, 48 h; format: cell-based
Description: as §5

[13] = test system: MCF7 cells; assay: SRB assay, 48 h; format: cell-based
Description: as §5

[14] = test system: Capan2 (pancreatic adenocarcinoma); set-up: method as in PMID 36793764, PMID 34638791, PMID 35054999; conditions: Figure 1, complex Ia; cited from earlier work
[15] = test system: A2780 (ovarian); conditions: Figure 1, complex Ia; read-out: IC50 A2780 (ovarian, cisplatin resistant); cited from earlier work
[16] = test system: Saos (sarcoma); set-up: method as in PMID 36793764, PMID 34638791, PMID 35054999; conditions: Figure 1, complex Ia; cited from earlier work
[17] = test system: Gram-positive multiresistant bacteria (Staphylococcus aureus, Enterococcus species); set-up: method as in PMID 35494644, PMID 36793764; conditions: Figure 1, Staphylococcus aureus; cited from earlier work
[18] = test system: ID8 (ovarian); set-up: method as in PMID 36793764, PMID 34638791, PMID 35054999; conditions: Figure 1, complex Ia; cited from earlier work

IC50 [1]: 4.11 µM | Fibroblast SRB Max Inhibition [2]: 56.31% | logD [3]: 1.15 | MIC ([4]; clinical isolate 25,051 VRE, read-out: MIC 25,051 VRE): 5 µM | MIC ([4]; clinical isolate 25,498 VRE, read-out: MIC 25,498 VRE): 5 µM | MIC ([4]; clinical isolate 27,085 VRE, read-out: MIC 27,085 VRE): 5 µM | MIC ([7]; 24 h): 5 µM | MIC [8]: 5 µM | MIC ([9]; clinical isolate 20,426 MRSA, read-out: MIC 20,426 MRSA): 5 µM | MIC ([9]; clinical isolate 24,035 MRSA, read-out: MIC 24,035 MRSA): 5 µM | MIC ([9]; clinical isolate 24,268 MRSA, read-out: MIC 24,268 MRSA): 5 µM | MIC ([9]; clinical isolate 24,272 MRSA, read-out: MIC 24,272 MRSA): 5 µM | MIC ([9]; clinical isolate 24,328 MRSA, read-out: MIC 24,328 MRSA): 5 µM | MIC ([9]; clinical isolate 24,408 MRSA, read-out: MIC 24,408 MRSA): 5 µM
Structure (SMILES): Cc1ccc(C(C)C)cc1.F[P-](F)(F)(F)(F)F.N[C@@H]1[C@@H](OC(=O)c2ccccc2)[C@H](OC(=O)c2ccccc2)[C@@H](COC(=O)c2ccccc2)O[C@H]1c1ccccn1.[Cl][Ru+] [Ru-7a]
A2780 SRB Max Inhibition [1]: >90% | IC50 [5]: 9.15 µM | A2780 MTT Max Inhibition ([5]; inhibition at maximum concentration (100 μM) where no plateau, ND = not detectable): >90% | Fibroblast MTT Max Inhibition [6]: 65.18%

IC50 [1]: 36.2 µM | IC50 ([1]; Homo sapiens, A2780, 48 h): > 30 µM | MIC ([4]; Enterococcus, clinical isolate 25,051 VRE, read-out: MIC 25,051 VRE): > 40 µM | MIC ([4]; Enterococcus, clinical isolate 25,498 VRE, read-out: MIC 25,498 VRE): > 40 µM | MIC ([4]; Enterococcus, clinical isolate 27,085 VRE, read-out: MIC 27,085 VRE): > 40 µM | MIC ([7]; Staphylococcus aureus, ATCC29213, 24 h): > 40 µM | MIC ([8]; Enterococcus faecalis): > 40 µM | MIC ([9]; Staphylococcus aureus, clinical isolate 20,426 MRSA, read-out: MIC 20,426 MRSA): > 40 µM | MIC ([9]; Staphylococcus aureus, clinical isolate 24,035 MRSA, read-out: MIC 24,035 MRSA): > 40 µM | MIC ([9]; Staphylococcus aureus, clinical isolate 24,268 MRSA, read-out: MIC 24,268 MRSA): > 40 µM | MIC ([9]; Staphylococcus aureus, clinical isolate 24,272 MRSA, read-out: MIC 24,272 MRSA): > 40 µM | MIC ([9]; Staphylococcus aureus, clinical isolate 24,328 MRSA, read-out: MIC 24,328 MRSA): > 40 µM | MIC ([9]; Staphylococcus aureus, clinical isolate 24,408 MRSA, read-out: MIC 24,408 MRSA): > 40 µM
Structure (SMILES): N[C@@H]1[C@@H](OCc2ccccc2)[C@H](OCc2ccccc2)[C@@H](COCc2ccccc2)O[C@H]1c1ccccn1 [Complex 3a, 2-(2′-Amino-2′-deoxy-3′,4′,6′-tri-O-benzyl-β-D-glucopyranosyl)pyridine]
A2780 SRB Max Inhibition [1]: >90% | inhibition at 100 µM ([5]; Homo sapiens, inhibition at maximum concentration (100 μM) where no plateau, ND = not detectable, read-out: A2780 MTT Max Inhibition): 70.2% | Fibroblast MTT Max Inhibition [6]: 32.22% | IC50 [10]: 13.1 µM | ID8 SRB Max Inhibition [10]: >90% | IC50 ([10]; Mus musculus, ID8, 48 h): 10 to 30 µM | U251 SRB Max Inhibition [11]: >90% | Capan2 SRB Max Inhibition [12]: >90% | IC50 [12]: 15 µM | IC50 ([12]; Homo sapiens, Capan-2, 48 h): 10 to 30 µM | MCF7 SRB Max Inhibition [13]: >90%

Structure (SMILES): Cc1ccc(C(C)C)cc1.F[P-](F)(F)(F)(F)F.O=C(OCC1OC(n2cc(-c3ccc4ccccc4n3)nn2)C(OC(=O)c2ccccc2)C(OC(=O)c2ccccc2)C1OC(=O)c1ccccc1)c1ccccc1.[Cl][Os+] (centres unmarked) [Ia]
IC50 [14]: 1.35 µM | IC50 [15]: 0.43 µM | IC50 [16]: 1.29 µM | MIC on Gram-positive multiresistant bacteria [17]: 5 to 20 µM | IC50 [18]: 0.36 µM
